Results published in US10646475B2, “SHMT inhibitors” (The Trustees of Princeton University, priority 2015, dated 2020).
“Also recorded” adds a separate entry of the source.

Legend:
human MTHFD2 = target: T1, human MTHFD2 (Homo sapiens, UniProt P13995); experiment: MTHFD2 in vitro assay (rate of NADH formation at 340 nm); assay type: biochemical; settings: FIG. 3(c)
T1 sequence (P13995 36-350): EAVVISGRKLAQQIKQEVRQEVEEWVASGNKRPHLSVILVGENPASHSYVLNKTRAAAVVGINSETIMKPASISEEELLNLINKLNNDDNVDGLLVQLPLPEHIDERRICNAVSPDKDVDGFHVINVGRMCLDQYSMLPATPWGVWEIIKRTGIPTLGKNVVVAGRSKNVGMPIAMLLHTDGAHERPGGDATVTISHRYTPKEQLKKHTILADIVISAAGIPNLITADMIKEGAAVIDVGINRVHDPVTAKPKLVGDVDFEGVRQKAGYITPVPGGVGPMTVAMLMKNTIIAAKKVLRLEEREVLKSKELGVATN
Source text: For the MTHFD2 in vitro assay (FIG. 3(c)), the rate of NADH formation was directly monitored at 340 nm.

human SHMT2 = target: T2, human SHMT2 (Homo sapiens, UniProt P34897); experiment: SHMT2 in vitro coupled enzymatic assay (coupled with excess MTHFD2, NADH absorption at 340 nm); assay type: biochemical; settings: for IC50: inhibition of initial reaction velocity
T2 sequence (P34897 30-504): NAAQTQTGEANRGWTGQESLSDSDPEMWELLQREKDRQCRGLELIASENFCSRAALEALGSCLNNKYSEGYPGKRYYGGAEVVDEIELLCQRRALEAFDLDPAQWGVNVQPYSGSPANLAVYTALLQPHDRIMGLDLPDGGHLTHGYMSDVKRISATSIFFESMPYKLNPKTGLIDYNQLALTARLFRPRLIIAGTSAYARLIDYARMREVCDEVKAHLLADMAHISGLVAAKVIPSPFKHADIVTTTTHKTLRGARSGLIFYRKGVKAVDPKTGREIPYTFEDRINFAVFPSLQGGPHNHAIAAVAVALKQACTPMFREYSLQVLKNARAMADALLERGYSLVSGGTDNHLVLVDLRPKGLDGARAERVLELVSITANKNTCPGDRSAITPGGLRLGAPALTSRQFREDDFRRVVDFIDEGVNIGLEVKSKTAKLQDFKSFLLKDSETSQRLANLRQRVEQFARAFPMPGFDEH

human SHMT1 = target: T3, human SHMT1 (Homo sapiens, UniProt P34896); experiment: SHMT1 in vitro coupled enzymatic assay (coupled with excess MTHFD2, NADH absorption at 340 nm); assay type: biochemical; settings: for IC50: inhibition of initial reaction velocity
T3 sequence (P34896 1-483): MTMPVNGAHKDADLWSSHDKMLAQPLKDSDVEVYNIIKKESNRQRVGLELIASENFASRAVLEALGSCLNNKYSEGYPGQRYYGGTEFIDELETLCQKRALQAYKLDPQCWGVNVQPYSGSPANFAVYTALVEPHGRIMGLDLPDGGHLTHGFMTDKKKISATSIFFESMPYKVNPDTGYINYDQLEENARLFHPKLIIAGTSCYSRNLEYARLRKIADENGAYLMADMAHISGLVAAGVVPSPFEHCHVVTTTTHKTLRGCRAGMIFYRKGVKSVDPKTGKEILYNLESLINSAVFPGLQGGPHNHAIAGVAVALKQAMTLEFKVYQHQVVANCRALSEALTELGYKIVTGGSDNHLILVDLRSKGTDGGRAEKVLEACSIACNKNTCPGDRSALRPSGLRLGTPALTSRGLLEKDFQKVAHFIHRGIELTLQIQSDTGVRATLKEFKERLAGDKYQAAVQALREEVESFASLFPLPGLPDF

[1] = system: SHMT serine metabolic activity in SHMT2 expressing human cells; experiment: Isotope labeling of serine metabolism in cells (labeled serine, LC-MS); assay type: cell-based; settings: uniformly labeled serine, FIG. 2(c)
Description: Using 2,3,3-^2H3-serine (D3-serine) as a tracer, mitochondrial flux was measured by quantifying the labeling pattern of dTTP, a downstream product of dTMP. […] This assay was used to examine mitochondrial serine flux and the effect of compounds of the disclosure on mitochondrial serine flux, in either wildtype or mutant cells.
Uniformly labeled serine is metabolized into various isoptomers in WT cells by the forward and reverse enzymatic activity of SHMT.

[2] = system: human cells expressing SHMT2; experiment: Measurement of AICAR, marker for one-carbon unit stress, in cells; assay type: cell-based; settings: treatment for 24 hours, increasing concentrations, FIG. 2(b)
Description: HEK-293T cells were cultured in 6-well plates in Dulbecco's modified eagle media (DMEM) without pyruvate with 10% dialysed fetal bovine serum in 5% CO2 at 37° C. […] Growth was quenched and metabolites extracted by aspirating media, washing cells with cold PBS, and immediately adding MeOH/water (80:20 at −80° C.). Supernatants from two rounds of extraction were combined, dried under N2, resuspended in water, placed in a 4° C. autosampler, and analyzed by reverse-phase ion-paring chromatography negative-mode electrospray-ionization high-resolution MS on a stand-alone orbitrap.
Generation of AICAR provides an assay to evaluate one-carbon unit stress. Inhibition of SHMT2 in cells decreases serine metabolism and leads to one-carbon stress. […] Such cells show high constitutive levels of 5-aminoimidazole-4-carboxamide ribonucleotide (AICAR), a marker for one-carbon unit stress, when cultured in media (left bar in FIG. 2(a)). This can be rescued by exogenous treatment with sodium formate (right bar in FIG. 2(a)).
(*) indicates AICAR was below the limit of detection.

[3] = system: MTHFD2 knock-out HEK293T cells; experiment: Cell growth assay (resazurin), MTHFD2 knock-out 293T; assay type: cell-based, human; settings: varying concentrations
Description: (§1) Inhibitors of SHMT were evaluated in wildtype, SHMT2 knock-out, and MTHFD2 knock-out 293T cells (FIG. 6(a) and FIG. 6(b)).
(§2) The described cell lines used in Examples 9-11 were cultured in 96-well plates in Dulbecco's modified eagle media (DMEM) without pyruvate (CELLGRO) with 10% dialysed fetal bovine serum (Invitrogen) in 5% CO2 at 37° C. Approximately 2,500 cells were plated in each well in 90 uL of media. After 24 hours cells were treated with various concentrations of inhibitor (time=0 hours), with or without formate. Growth was assessed at multiple time points (time=0, 24, 48, 72 hours) through measurement of fluorescence at 595 nm (excitation at 535 nm) on a BioTek micro titer plate reader after incubation with resazurin (0.01 mg/mL for 1.5 hours). IC50 curves were generated from percent inhibition of growth at 72 hours.

[4] = system: SHMT2 knock-out HEK293 cells; experiment: Cell growth assay (resazurin), SHMT2 knock-out 293T; assay type: cell-based, human; settings: varying concentrations
Description: HEK293T cell lines mutant for SHMT1 and SHMT2 were created using the CRISPR-Cas9 system following standard published protocols. Single clones from successful transfections were grown up, genotyped and characterized.
as §1, §2

[5] = system: HCT116 human colon carcinoma cells; experiment: Cancer cell growth assay (resazurin), HCT116; assay type: cell-based; settings: HCT116, varying concentrations, FIG. 7
Description: (§3) Inhibitors of SHMT were evaluated in various cancer cell lines. […] This cancer cell line comprises (harbors) a mutation in a component of the mitochondrial folate pathway. Specifically, one or more cells in this line comprise a mutation in the downstream mitochondrial folate enzyme, MTHFD1L.
as §2

HEK293T cells = experiment: Cell growth assay (resazurin), wild-type HEK293T; assay type: cell-based, human; settings: for inhibition of cell growth: varying concentrations
Description: HEK293T cells were cultured in 96-well plates in Dulbecco's modified eagle media (DMEM) without pyruvate with 10% dialysed fetal bovine serum (Invitrogen) in 5% CO2 at 37° C. 24 hours after plating, cells were treated with various concentrations of inhibitor. Growth was serially assessed using the resazurin (‘AlamarBlue’) assay.
as §2

[6] = system: 8988T pancreatic cancer cells; experiment: Cancer cell growth assay (resazurin), 8988T; assay type: cell-based, human; settings: 8988T (MTHFD1L mutation), varying concentrations, FIG. 7
Description: as §3, §2

SMILES: COc1cccc(C2(C3CCC3)C(C#N)=C(N)Oc3[nH]nc(C)c32)c1 (racemic) [HK-2]
- inhibition of human MTHFD2 in enzymatic assays (human MTHFD2): do not inhibit

SMILES: Cc1n[nH]c2c1C(c1cc(Cl)cc(Cl)c1)(C1CCC1)C(C#N)=C(N)O2 (racemic) [HK-10]
- IC50 (human SHMT2; Table A): 159 nM

SMILES: Cc1n[nH]c2c1C(c1cc(Cl)cc(Cl)c1)(C(C)C)C(C#N)=C(N)O2 (racemic) [HK-14]
- IC50 (human SHMT1; Table A): 67 nM
- IC50 (human SHMT2; Table A): 131 nM

SMILES: Cc1n[nH]c2c1C(c1cc(Cl)cc(C(F)(F)F)c1)(C(C)C)C(C#N)=C(N)O2 (racemic) [HK-15]
- inhibition of human MTHFD2 in enzymatic assays (human MTHFD2): do not inhibit
- IC50 (human SHMT1; Table A): 20 nM
- IC50 (human SHMT2; Table A): 35 nM

SMILES: Cc1n[nH]c2c1C(c1cc(C(F)(F)F)cc(C(F)(F)F)c1)(C(C)C)C(C#N)=C(N)O2 (racemic) [HK-16]
- inhibition of human MTHFD2 in enzymatic assays (human MTHFD2): do not inhibit
- SHMT serine metabolic activity in cells [1]: inhibited in cells by HK-16 in a dose-dependent manner
- AICAR accumulation [2]: AICAR accumulation in a dose-dependent manner

SMILES: Cc1n[nH]c2c1C(c1cc(C(F)(F)F)cc(C(F)(F)F)c1)(C(C)C)C(C#N)=C(N)O2 (single isomer, unassigned) [HK-16 (PK-1)]
- inhibition of cell growth ([3]; FIG. 6, listed as HK-16-P1): significantly less or no effect
- inhibition of cell growth ([3]; FIG. 6, listed as Peak 1): Some, although a lower degree of activity
- inhibition of cell growth ([4]; FIG. 6, listed as HK-16-P1): significantly less or no effect
- inhibition of cell growth ([4]; FIG. 6, listed as Peak 1): Some, although a lower degree of activity
- inhibition of cancer cell growth ([5]; listed as HK-16-P1): does not inhibit cell growth
- inhibition of cell growth (HEK293T cells; FIG. 5, 6): not inhibited
- inhibition of cell growth (HEK293T cells; FIG. 5, 6, listed as HK-16-P1): significantly less or no effect
- inhibition of cell growth (HEK293T cells; FIG. 5, 6, listed as Peak 1): not appreciably inhibited; also recorded: little or no activity

SMILES: Cc1n[nH]c2c1C(c1cccc(Cl)c1)(C1CCC1)C(C#N)=C(N)O2 (stereo not shown) [HK-3]
- IC50 (human SHMT2; Table A): 1190 nM
- IC50 (human SHMT2; table of Example 6): 1190 nM

SMILES: COc1cccc(C2(C(C)C)C(C#N)=C(N)Oc3[nH]nc(C)c32)c1 (stereo not shown) [HK-6]
- IC50 (human SHMT2; Table A): 4580 nM
- IC50 (human SHMT2; table of Example 6): 4580 nM

SMILES: Cc1n[nH]c2c1C(c1cccc(Cl)c1)(C(C)C)C(C#N)=C(N)O2 (stereo not shown) [HK-7]
- IC50 (human SHMT2; Table A): 400 nM
- IC50 (human SHMT2; table of Example 6): 400 nM

SMILES: COc1cc(Cl)cc(C2(C3CCC3)C(C#N)=C(N)Oc3[nH]nc(C)c32)c1 (stereo not shown) [HK-9]
- IC50 (human SHMT2; Table A): 3460 nM
- IC50 (human SHMT2; table of Example 6): 3460 nM

SMILES: Cc1n[nH]c2c1C(c1cc(Cl)cc(C(F)(F)F)c1)(C1CCC1)C(C#N)=C(N)O2 (stereo not shown) [HK-11]
- IC50 (human SHMT2; Table A): 100 nM
- IC50 (human SHMT2; table of Example 6): 100 nM

SMILES: Cc1n[nH]c2c1C(c1cc(C(F)(F)F)cc(C(F)(F)F)c1)(C1CCC1)C(C#N)=C(N)O2 (stereo not shown) [HK-12]
- IC50 (human SHMT1; Table A): 206 nM
- IC50 (human SHMT1; table of Example 6): 206 nM
- IC50 (human SHMT2; Table A): 168 nM
- IC50 (human SHMT2; table of Example 6): 168 nM

SMILES: COc1cc(Cl)cc(C2(C(C)C)C(C#N)=C(N)Oc3[nH]nc(C)c32)c1 (stereo not shown) [HK-13]
- IC50 (human SHMT2; Table A): 500 nM
- IC50 (human SHMT2; table of Example 6): 500 nM

SMILES: Cc1n[nH]c2c1C(c1cc(C(F)(F)F)cc(C(F)(F)F)c1)(C(C)C)C(C#N)=C(N)O2 (stereo not shown) [HK-16 (PK-2)]
- activity against SHMT1 in an in vitro enzyme assay (human SHMT1; FIG. 4(b)): active
- inhibition of cell growth ([3]; FIG. 6, listed as HK-16-P2): active; also recorded: increased sensitivity to inhibition
- inhibition of cell growth ([3]; FIG. 6, listed as Peak 2): inhibited cell growth
- inhibition of cell growth ([4]; FIG. 6, listed as HK-16-P2): active; also recorded: increased sensitivity to inhibition
- inhibition of cell growth ([4]; FIG. 6, listed as Peak 2): inhibited cell growth
- inhibition of cancer cell growth ([6]; listed as HK-16 (peak 2)): more sensitive
- inhibition of cancer cell growth ([6]; listed as HK-16-P2): significantly more sensitive; also recorded: inhibited growth
- inhibition of cancer cell growth ([5]; listed as HK-16-P2): inhibits cancer cell growth; also recorded: inhibited growth
- rescue of growth inhibitory effects by formate (HEK293T cells; compound at 10 μM, co-culture with formate at 1 mM, FIG. 8): rescued
- inhibition of cell growth (HEK293T cells; FIG. 5, 6, listed as HK-16-P2): active
- inhibition of cell growth (HEK293T cells; FIG. 5, 6, listed as Peak 2): inhibited in a dose-dependent manner; also recorded: inhibited cell growth
- anti-SHMT2 activity of resolved enantiomers of HK-16 (human SHMT2; FIG. 4(a)): confined to the enantiomer represented by “Peak 2”

SMILES: Cc1nn(C)c2c1C(c1cc(C(F)(F)F)cc(C(F)(F)F)c1)(C(C)C)C(C#N)=C(N)O2 (stereo not shown) [KDG-4]
- IC50 (human SHMT1; table of Example 6): > 5000 nM
- IC50 (human SHMT2; table of Example 6): > 5000 nM

SMILES: Cc1nn(-c2ccccc2)c2c1C(c1cc(C(F)(F)F)cc(C(F)(F)F)c1)(C(C)C)C(C#N)=C(N)O2 (stereo not shown) [KDG-5]
- IC50 (human SHMT1; table of Example 6): > 5000 nM
- IC50 (human SHMT2; table of Example 6): > 5000 nM

SMILES: CC(C)c1n[nH]c2c1C(c1cc(C(F)(F)F)cc(C(F)(F)F)c1)(C(C)C)C(C#N)=C(N)O2 (stereo not shown) [KDG-12]
- IC50 (human SHMT1; table of Example 6): 9.3 nM
- IC50 (human SHMT2; table of Example 6): 71 nM
